In patent US6303591A, “21-hydroxy-6,19-oxidoprogesterone (21OH-6OP) and its use as medicament for treating excess of glucocorticoids” (Applied Research Systems ARS Holding NV, priority 1997, dated 2001):
Entries after “also recorded” stand apart in the source; their conditions may differ.

Legend:
liver glycogen = liver glycogen deposition in vivo, adrenalectomized rats; design: species or system rat; settings: 100 μg steroid/100 g body weight; for liver glycogen deposits: compared to ADX controls
Procedure: (§1) FIG. 3: Biological Properties of 21OH-6OP: A) Glycogen storage in vivo: 100 μg steroid/100 g body weight of male rats were injected as indicated in Example 1. Liver glycogen was purified and quantified with Krisman's reagent (17). Controls were injected with vehicle. Results are expressed as means±SEM (n=6). (*): different from controls P<0.02. B) TAT induction in vitro: rat hepatocytes were incubated for 5 h in HAM-F12 medium in the presence of 100 nM steroid and TAT activity was measured. Results are expressed as percentage of enzyme activity (means±SEM, n=4) over controls incubated in the presence of vehicle. (*) different from controls P<0.01. C) Sodium-retaining activity: adrenalectomized rats were treated with the indicated dose of steroids. Results are expressed as the ratio of sodium-excretion rates of steroid-injected animals to the excretion rates of rats injected with vehicle.
(§2) Bioassay : Liver glycogen deposition was measured on adrenalectoniized male Sprague-Dawley rats (180-220 g) as follows: steroids were dissolved in ethanol/propylene glycol/0.9% NaCl solution (3:3:34) and 100 μg steroid/l00 g body weight were injected i.m. the previous night. On the morning of the experiment this dose was reinjected intraperitoneally. Three hours later the rats were killed by cervical dislocation and livers were immediately removed. Glycogen purification and quantification were carried out according to Krisman's method (17). Na^+ -retaining properties were measured as described (5). Tyrosine aminotransferase (TAT) was induced in rat hepatocytes isolated by the procedure of Fry et al (18). TAT activity was determined according to Granner and Tomkins (19).

[1] = system: Na^+ retention (sodium-excretion rate); settings: earlier study, ref (5); cited from earlier work
[2] = system: TAT induction in hepatocytes (GR); assay: antagonism of TAT induction by DXM or B in hepatocytes; format: cell-based, rat; settings: 2.5 μM steroid
Procedure: (§3) Hatched bars represent incubations performed in the presence of vehicle instead of agonist.
as §2
(§4) The basal TAT activity in hepatocytes, denominated control in the figure, was measured by adding vehicle (final concentration: 0.2% ethanol) to the culture. […] 2.5 μM 21OH-6OP inhibits 80% of TAT induction when concubated with B or DXM.

[3] = system: tyrosine aminotransferase (TAT) induction in rat hepatocytes; assay: TAT induction in rat hepatocytes (agonism); format: cell-based; settings: for increase of TAT activity: 100 nM steroid, rat hepatocytes
Procedure: as §1, §3, §2, §4

[4] = system: Na^+ retention (sodium-excretion rate); assay: Na^+ -retaining activity, adrenalectomized rats; format: in vivo, rat
Procedure: as §1, §2

type II sites (GR) = molecular target: T1, type II sites (GR) (Rattus norvegicus, UniProt P06536); assay: tracer binding (Scatchard) to kidney type II sites (GR); settings: no competitor
T1 construct: type II receptors in kidney cytosols; from tissue; host or cells: kidney cytosol, adrenalectomized male Sprague-Dawley rats
T1 sequence (P06536 1-795): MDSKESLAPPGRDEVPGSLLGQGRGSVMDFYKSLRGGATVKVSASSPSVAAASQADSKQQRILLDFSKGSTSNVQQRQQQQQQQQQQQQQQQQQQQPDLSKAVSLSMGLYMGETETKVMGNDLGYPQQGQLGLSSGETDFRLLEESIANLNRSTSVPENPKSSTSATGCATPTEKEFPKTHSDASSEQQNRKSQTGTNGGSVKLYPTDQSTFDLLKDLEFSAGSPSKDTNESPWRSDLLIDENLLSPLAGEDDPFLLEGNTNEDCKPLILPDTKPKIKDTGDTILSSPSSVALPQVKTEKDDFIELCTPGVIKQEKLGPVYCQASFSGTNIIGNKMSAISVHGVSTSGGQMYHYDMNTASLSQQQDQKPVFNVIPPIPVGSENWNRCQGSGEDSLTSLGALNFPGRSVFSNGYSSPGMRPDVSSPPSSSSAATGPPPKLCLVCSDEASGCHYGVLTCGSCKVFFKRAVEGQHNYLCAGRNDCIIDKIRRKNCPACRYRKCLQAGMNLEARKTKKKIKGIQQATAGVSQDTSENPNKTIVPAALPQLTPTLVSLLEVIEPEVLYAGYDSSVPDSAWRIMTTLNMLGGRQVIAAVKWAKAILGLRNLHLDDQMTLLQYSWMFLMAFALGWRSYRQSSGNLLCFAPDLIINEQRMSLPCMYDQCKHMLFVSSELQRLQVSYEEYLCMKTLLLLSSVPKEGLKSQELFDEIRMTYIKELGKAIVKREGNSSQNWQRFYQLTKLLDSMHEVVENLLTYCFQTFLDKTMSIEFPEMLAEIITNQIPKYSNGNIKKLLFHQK
Procedure: (§5) Binding Assay: Adrenalectomized male Sprague-Dawley rats were bled to death by heart puncture. Cold 0.9% NaCI was injected profusely through the aorta until organs were completely blanched. Thymuses were used as a source of GR and kidneys as a source of MR. Homogenization and incubation conditions were performed as previously described, (14) and (15), respectively. Briefly, homogenates performed in cold TEGM buffer at pH 7.4 (0.1 M Tris-HCl, 10 mM EDTA, 10 mM α-mercaptoethanol, 20 mM Na2 MoO4, 25% glycerol, 0.1 mM PMSF, 2.0 TIU/ml aprotinin and 1 mg% Leupeptin) were centrifuged at 37,000 rev. for 30 min at 0° C. Supernatants from this centrifugation are referred to as "cytosol". […] (^3 H)-P4 binding to uterus PR was assayed on immature female rats according to Jordan et al (16).
(§6) To study the binding of ALDO to kidney- MR without the competitive influence of the relatively more abundant GR, GR was removed with the specific ligand RU28362 (7).
The calculated Kd for type I sites in different conditions ranges between 0.4 and 1 nM (Table 1) which is at least eighty times higher than the affinity for type II sites.

[5] = molecular target: T2, type I receptors (kidney MR) (Rattus norvegicus, UniProt P22199); assay: tracer binding (Scatchard) to kidney type I sites (MR); settings: for nH, type I: Hill coefficient; for Q, type I: apparent number of sites
T2 construct: kidneys as a source of MR; from tissue; host or cells: kidney cytosol, adrenalectomized male Sprague-Dawley rats
T2 sequence (P22199 1-981): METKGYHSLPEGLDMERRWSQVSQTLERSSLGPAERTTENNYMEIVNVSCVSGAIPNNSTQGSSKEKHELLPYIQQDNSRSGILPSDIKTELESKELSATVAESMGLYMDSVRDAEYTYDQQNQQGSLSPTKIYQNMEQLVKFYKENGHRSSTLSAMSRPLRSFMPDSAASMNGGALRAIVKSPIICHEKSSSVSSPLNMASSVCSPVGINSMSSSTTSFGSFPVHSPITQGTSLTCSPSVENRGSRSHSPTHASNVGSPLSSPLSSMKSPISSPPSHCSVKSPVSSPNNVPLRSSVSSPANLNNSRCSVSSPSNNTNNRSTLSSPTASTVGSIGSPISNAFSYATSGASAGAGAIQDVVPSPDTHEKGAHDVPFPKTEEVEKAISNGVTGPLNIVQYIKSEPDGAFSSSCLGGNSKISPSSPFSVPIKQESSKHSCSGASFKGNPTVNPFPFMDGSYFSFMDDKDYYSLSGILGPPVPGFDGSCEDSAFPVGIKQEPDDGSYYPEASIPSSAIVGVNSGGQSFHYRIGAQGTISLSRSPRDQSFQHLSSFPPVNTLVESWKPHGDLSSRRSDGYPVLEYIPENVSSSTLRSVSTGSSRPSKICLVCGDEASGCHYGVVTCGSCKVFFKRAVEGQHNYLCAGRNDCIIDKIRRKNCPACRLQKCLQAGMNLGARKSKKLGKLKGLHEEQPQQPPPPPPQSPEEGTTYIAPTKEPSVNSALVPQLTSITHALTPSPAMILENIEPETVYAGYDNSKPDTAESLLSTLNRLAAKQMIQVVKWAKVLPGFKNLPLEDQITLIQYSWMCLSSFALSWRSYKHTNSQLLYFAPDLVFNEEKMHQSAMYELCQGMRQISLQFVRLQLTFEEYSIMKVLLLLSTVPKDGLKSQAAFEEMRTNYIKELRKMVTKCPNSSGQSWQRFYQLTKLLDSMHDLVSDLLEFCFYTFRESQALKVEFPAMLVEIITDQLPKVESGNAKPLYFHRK
Procedure: as §5, with “(16). […]” for “(16).”
as §6

hippocampus type I MR = settings: ref (9); cited from earlier work
[6] = system: inoperable cases of nonpituitary Cushing's syndrome; settings: cited from earlier work
PR = settings: background; cited from earlier work
[7] = in the presence of 2.5 μM 21OH-6OP
[8] = in the presence of 10 μM RU-28362

CC(=O)[C@H]1CC[C@H]2[C@@H]3C[C@H]4OC[C@@]5(CCC(=O)C=C45)[C@H]3CC[C@]12C [6OP, 6,19-oxidoprogesterone]
GC response: liver glycogen (liver glycogen; FIG. 3-A): neither 6OP nor 21OH-6OP evoke these responses | Na^+ retaining properties [1]: exhibited practically no Na^+ retaining properties | antagonism of TAT induction by B (in words) ([2]; 100 nM B): significantly different (P<0.01) from the basal activity | antagonism of TAT induction by DXM (in words) ([2]; 100 nM DXM): significantly different (P<0.01) from the basal activity | TAT induction (in words) ([3]; FIGS. 3-B and 4 (hatched bars), no agonist added): neither 6OP nor 21OH-6OP evoke these responses; also recorded: Neither 6OP nor 21OH-6OP facilitate TAT induction | GC properties ([3]; preliminary studies, test not specified): lack of GC properties | Na^+ -retaining (MC) properties (in words) ([4]; FIG. 3-C): weak Na^+ -retainer; also recorded: then loosing activity at still higher doses | maximum Na^+ retention ([4]; maximum of parabolic dose-response, at high doses): 50%

C[C@]12CCC(=O)C=C1CC[C@@H]1[C@@H]2[C@@H](O)C[C@]2(C=O)[C@@H](C(=O)CO)CC[C@@H]12 [(^3 H)-ALDO, Aldosterone]
nH, type II (type II sites (GR); Hill coefficient): 0.86 | Q, type II (type II sites (GR); apparent number of sites): 2900 fmol/mg | Kd (type II sites (GR)): 64.4 nM | nH, type I [5, 7]: 0.88 | nH, type I [5, 8]: 0.90 | nH, type I ([5]; no competitor): 0.97 | Q, type I [5, 7]: 110 fmol/mg | Q, type I [5, 8]: 124.4 fmol/mg | Q, type I ([5]; no competitor): 104 fmol/mg

COC(=O)[C@@H]1CC2=CC(=O)CC[C@]2(C)[C@H]2CC[C@@]3(C)[C@@H]([C@@H]4C[C@@H]4[C@@]34CCC(=O)O4)[C@H]12 [(^3 H)-ZK91587]
binding to hippocampus type I MR (hippocampus type I MR): hippocampus type I MR (9) | nH, type I ([5]; no competitor): 0.91 | Q, type I ([5]; no competitor): 98 fmol/mg | Kd ([5]; no competitor): 0.42 nM

C[C@]12C[C@H](O)[C@H]3[C@@H](CCC4=CC(=O)CC[C@@]43C)[C@@H]1CC[C@@H]2C(=O)CO [B, corticosterone]
liver glycogen deposits (liver glycogen): between three and four times more | increase of TAT activity [3]: between five and six times

C[C@@H]1C[C@H]2[C@@H]3CCC4=CC(=O)C=C[C@]4(C)[C@@]3(F)[C@@H](O)C[C@]2(C)[C@@]1(O)C(=O)CO [DXM, dexamethasone]
liver glycogen deposits (liver glycogen): between three and four times more | increase of TAT activity [3]: between five and six times

CC#C[C@]1(O)CC[C@H]2[C@@H]3C=C(C)C4=CC(=O)C=C[C@]4(C)[C@H]3[C@@H](O)C[C@@]21C [RU28862]
reduction of (^3 H)-ALDO Scatchard plot to type I sites ([5]; 1.0 μM RU28862, selective MR ligand ZK91587): reduces the plot to a single line corresponding to type I sites

CC#C[C@]1(O)CC[C@H]2[C@@H]3CCC4=CC(=O)CCC4=C3[C@@H](c3ccc(N(C)C)cc3)C[C@@]21C [RU38486]
dose needed for effectiveness [6]: 20-800 mg per day | antiprogestin activity (PR): strong antiprogestin activity
